Reference: patent US6616925B1, “Combined preparation for the treatment of neoplasic diseases or of infectious diseases” (I.D.M. Immuno-Designed Molecules, priority 1998, dated 2003)

Legend:
[1] = test system: solid carcinoma; experiment: C57B16 mice bearing solid carcinoma, apoptosis-inducing drug then monocyte derived cells; format: in vivo; conditions: drug intraperitonealy, after 24 h 0.1 million monocyte derived cells in tumor periphery; observed only after combined treatment
Experimental: 7) C57B16 mice bearing solid carcinoma are injected intraperitonealy with a drug inducing apoptosis (1 mg mitomycin C or 0.1 mg sodium butyrate). After 24 h, mice are injected with 0.1 million monocyte derived cells in tumor periphery. […] In another protocol, carcinoma cells are treated in vitro with 0.01 mM sodium butyrate, and then submitted to phagocytosis by murine monocyte derived cells.

[2] = test system: human carcinoma solid tumors; experiment: nude mice inoculated with human carcinoma solid tumors, subcutaneous tumor size; format: in vivo; conditions: after macrophage treatment; drugs used alone or in combination
Description: 2) Nude mice inoculated with human carcinoma solid tumors are, initially treated with cytotoxic drugs (Adriamycin, Etretinate, Taxotere), used alone or in combination.

Row | SMILES | tumor outcome after combined treatment [1] | antitumoral effect of second treatment with the same cytotoxic drugs (subcutaneous tumor size) [2]
1 | CO[C@@]12[C@H](COC(N)=O)C3=C(C(=O)C(C)=C(N)C3=O)N1C[C@@H]1N[C@@H]12 [mitomycin C] | Tumor regression and protection against further tumor challenge | –
2 | CCOC(=O)/C=C(C)/C=C/C=C(C)/C=C/c1c(C)cc(OC)c(C)c1C [Etretinate] | – | further antitumoral effect
3 | CCCC(=O)[O-].[Na+] [sodium butyrate] | Tumor regression and protection against further tumor challenge | –
4 | COc1cccc2c1C(=O)c1c(O)c3c(c(O)c1C2=O)C[C@@](O)(C(=O)CO)C[C@@H]3O[C@H]1C[C@H](N)[C@H](O)[C@H](C)O1 [Adriamycin] | – | further antitumoral effect
5 | CC(=O)O[C@@]12CO[C@@H]1C[C@H](O)[C@@]1(C)C(=O)[C@H](O)C3=C(C)[C@@H](OC(=O)[C@H](O)[C@@H](NC(=O)OC(C)(C)C)c4ccccc4)C[C@@](O)([C@@H](OC(=O)c4ccccc4)[C@H]21)C3(C)C [Taxotere] | – | further antitumoral effect
